This is an account of results in US20250000818A1, “NEW SYNERGISTIC COMBINATIONS BASED ON FENM AND AN ACETYLCHOLINESTERASE INHIBITOR” (REST Therapeutics, priority 2021, published 2025).

Assay [1] relates to mice intoxicated with Aβ25-35 oligomers. As to the kind of experiment: Y-labyrinth spontaneous alternation test (YMT), short-term spatial working memory, Aβ25-35 oligomer ICV intoxication model. It is filed as in vivo, male Swiss OF-1 mice.
Protocol: (§1) In vivo experiments were conducted on male Swiss OF-1 mice (January, St Berthevin, France) aged 7 to 9 weeks with a mass of 32±2 g. The animals are housed in groups of 8 to 10 individuals in plastic cages with free access to food and drink, in a controlled environment (12:00 day/night cycle, the light is switched on at 7:00 a.m. and the behavioral experiments take place between 9:00 a.m. and 5:00 p.m.), under controlled atmosphere and sound environment.
The stock solutions of the compounds were obtained by dissolution in NaCl buffer (0.9%, vehicle) at a concentration of 2 mg/mL which corresponds to a dose of 5 mg/Kg. These stock solutions are stored at 4° C. for 2 weeks maximum.
(§2) The vehicle solution or the control peptide are subjected to the same treatment before administration.
The compounds are IP administered in a volume of 100 μL per 20 g of body mass. […] The doses of compounds mentioned in the experimental part correspond to the doses of salts of the used compounds and not to the mass equivalent of the compound itself. For each compound, the administered doses are 0.01, 0.03, 0.1, 0.3 and 1 mg/kg. In the case of the combination, the co-administered doses of donepezil and FENM were 0.03 and 0.01 mg/kg, respectively.
(§3) The ability of the compounds and their combination to decrease the cognitive symptoms of neurodegeneration induced by the Aβ25-35 oligomers is tested. For this purpose, the administration of the test compounds takes place on the same day as the injection of the Aβ25-35 oligomers and continues on a daily basis until day 7 after the injection of the Aβ25-35 oligomers; the mice are then subjected to YMT tests, or PAT on day 8 after the injection of the Aβ25-35 oligomers.
The spontaneous alternation test is used to study the (very short-term) spatial working memory in rodents. The labyrinth is made of opaque gray polyvinyl chloride (PVC). Each arm is 40 cm long, 13 cm high and 3 cm wide at its base and 10 cm at its top. The arms converge towards one another, with an equal angle between the different arms. In brief, each mouse is placed at the end of an arm and left free to move for an 8-minute session. The mouse entries in each of the arms, including the arm at which it was dropped, are recorded. An alternation is defined as the successive entry of the animal into three different arms.
The animal data showing extreme behaviors (percentage of alternation <20% or >90%) are not taken into account in the calculations. The attrition rate is usually 5%. Under normal conditions, a mouse will spontaneously alternate the explorations of each arm. A mouse with impaired memory and/or orientation capabilities will have its alternation percentage decreased.
Data were analyzed using unidirectional variance analyses (ANOVA, F-value), followed by a Dunnett test or non-parametric Kruskal-Wallis ANOVA (H-value) followed by a Dunn comparison test. The statistical significance levels are p<0.05, p<0.01 and p<0.001.
For assay [2] the test system is unchanged. As to the kind of experiment: Passive avoidance test (PAT), long-term contextual memory, Aβ25-35 oligomer ICV intoxication model. It is filed as in vivo, male Swiss OF-1 mice.
Protocol: as §1
FENM was obtained from M2i Life Sciences (Saint-Cloud, France). The stock solutions of the compounds were obtained by dissolution in NaCl buffer (0.9%, vehicle) at a concentration of 2 mg/mL which corresponds to a dose of 5 mg/Kg. These stock solutions are stored at 4° C. for 2 weeks maximum.
as §2
The compounds are IP administered in a volume of 100 μL per 20 g of body mass. […] The doses of compounds mentioned in the experimental part correspond to the doses of salts of the used compounds and not to the mass equivalent of the compound itself. For each compound, the administered doses are 0.01, 0.03, 0.1, 0.3 and 1 mg/kg.
as §3
This test measures the long-term non-space (contextual) memory. The device used for this test is a box with two compartments (15×20×15 cm high), one illuminated with white PVC walls and the other in the dark with black PVC walls and a mesh floor. A guillotine door separates the compartments. A 60 W lamp is positioned 40 cm above the box and illuminates the white compartment. Electrical shocks (0.3 mA for 3 s) may be applied to the grid floor via a generator (Lafayette Instruments, Lafayette, USA). The test consists of a learning session and a test session. The guillotine door is closed during the training session. Each mouse is placed in the white compartment. After 5 seconds, the door is raised. When the mouse enters the dark compartment so that its four legs are in contact with the mesh, the door closes and electrical discharges are applied for 3 seconds. The time taken by the mouse to enter the dark compartment (STL-Tg) and the level of shock sensitivity (0=no sign; 1=surges; surge and vocalizes) are recorded. The test session is performed 24 hours after the learning session. Each mouse is placed back in the illuminated white compartment. After 5 seconds, the door is raised, the latency time (STL-R), i.e. the time it takes the mouse to go into the dark compartment, is measured. The maximum time is 300 seconds.

Turning to `NC12CC3CC(C1)CC(CCF)(C3)C2.OBr` [FENM, 3 (2-Fluoroethyl)tricyclo[3.3.1.13,7]decan-1-amine bromohydrate], the “effect on percentage of alternation of intoxicated mice” value in assay [1] (0.01 mg/kg) is recorded as “at the limit of statistical significance”; in assay [1] (0.03 mg/kg), “significantly improves the percentage of alternation”. The “PP (%) percentage protection” value is given as 38.5 ± 31.9% in assay [1] (0.01 mg/kg IP daily to day 7, 100% = non-intoxicated vehicle, 0% = Aβ25-35/vehicle); 58.4 ± 20.8% in assay [1] (0.03 mg/kg IP); 71.2 ± 33.3 % in assay [1] (0.1 mg/kg IP); 1.4 ± 18.3% in assay [2] (0.01 mg/kg IP); −12.2 ± 16.8 % in assay [2] (0.03 mg/kg IP); 27.8 ± 24.8% in assay [2] (0.1 mg/kg IP). The “PP (%) percentage protection” value in assay [2] (0.3 mg/kg IP) is on record as 52.9 ± 14.2 %. For the same compound, the “effect on passive avoidance performance (latency) of intoxicated mice” value in assay [2] (0.3 mg/kg or 1 mg/kg IP) was “performances that are not significantly different from the control, non-intoxicated, untreated mice”; in assay [2] (doses lower than 0.3 mg/kg), “does not protect mice from mnesic disorders”.
